{"source": "ChEMBL document CHEMBL1122875", "about": "“Orally absorbable cephalosporin antibiotics. 3. Preparation of biologically active R isomer of 7-(3-benzothienylglycylamido)deacetoxycephalosporanic acid” (1985)", "format_in_all_cases": "functional", "key": {"Staphylococcus aureus [1]": {"system": "Staphylococcus aureus", "test": "Tested for antibacterial activity against methicillin resistant Staphylococcus aureus X400."}, "Streptococcus": {"system": "Streptococcus", "test": "The compound was tested for antibacterial activity against Streptococcus group D X66."}, "Streptococcus pneumoniae": {"system": "Streptococcus pneumoniae", "test": "The compound was tested for antibacterial activity against Streptococcus pneumoniae Park."}, "Haemophilus influenzae [2]": {"system": "Haemophilus influenzae", "test": "The compound was tested for antibacterial activity against resistant Haemophilus influenzae 76."}, "Staphylococcus aureus [3]": {"system": "Staphylococcus aureus", "test": "Tested for antibacterial activity against methicillin resistant Staphylococcus aureus S13E."}, "Streptococcus pyogenes": {"system": "Streptococcus pyogenes", "test": "The compound was tested for antibacterial activity against Streptococcus pyogenes C203."}, "Staphylococcus aureus [4]": {"system": "Staphylococcus aureus", "test": "Tested for antibacterial activity against penicillin G sensitive Staphylococcus aureus X1.1"}, "Haemophilus influenzae [5]": {"system": "Haemophilus influenzae", "test": "The compound was tested for antibacterial activity against sensitive Haemophilus influenzae C.L."}, "[6]": {"system": "Staphylococcus epidermidis", "test": "The compound was tested for antibacterial activity against Staphylococcus epidermidis EP11."}, "Staphylococcus aureus [7]": {"system": "Staphylococcus aureus", "test": "Tested for antibacterial activity against penicillin G resistant Staphylococcus aureus V41."}}, "data": [{"molecule": "CC1=C(C(=O)O)N2C(=O)C(NC(=O)[C@@H](N)c3csc4ccccc34)C2SC1", "note": "(some centres not stated)", "values": [{"measurement": "MIC", "setting": "Staphylococcus aureus [1]", "value": "> 128", "unit": "µg/mL"}, {"measurement": "MIC", "setting": "Streptococcus", "value": "> 128", "unit": "µg/mL"}, {"measurement": "MIC", "setting": "Streptococcus pneumoniae", "value": 16, "unit": "µg/mL"}, {"measurement": "MIC", "setting": "Haemophilus influenzae [2]", "value": 16, "unit": "µg/mL"}, {"measurement": "MIC", "setting": "Staphylococcus aureus [3]", "value": 128, "unit": "µg/mL"}, {"measurement": "MIC", "setting": "Streptococcus pyogenes", "value": 16, "unit": "µg/mL"}, {"measurement": "MIC", "setting": "Staphylococcus aureus [4]", "value": 32, "unit": "µg/mL"}]}, {"molecule": "CC1=C(C(=O)O)N2C(=O)C(NC(=O)C(N)c3csc4ccccc34)C2SC1", "note": "(configuration not stated)", "values": [{"measurement": "MIC", "setting": "Streptococcus", "value": "> 128", "unit": "µg/mL"}, {"measurement": "MIC", "setting": "Haemophilus influenzae [5]", "value": 4, "unit": "µg/mL"}, {"measurement": "MIC", "setting": "[6]", "value": 4, "unit": "µg/mL"}, {"measurement": "MIC", "setting": "Streptococcus pneumoniae", "value": 4, "unit": "µg/mL"}, {"measurement": "MIC", "setting": "Haemophilus influenzae [2]", "value": 2, "unit": "µg/mL"}, {"measurement": "MIC", "setting": "Staphylococcus aureus [3]", "value": 16, "unit": "µg/mL"}, {"measurement": "MIC", "setting": "Streptococcus pyogenes", "value": 2, "unit": "µg/mL"}, {"measurement": "MIC", "setting": "Staphylococcus aureus [7]", "value": 8, "unit": "µg/mL"}, {"measurement": "MIC", "setting": "Staphylococcus aureus [4]", "value": 2, "unit": "µg/mL"}]}, {"molecule": "CC1=C(C(=O)O)N2C(=O)[C@@H](NC(=O)[C@H](N)c3ccccc3)[C@H]2SC1", "note": "[CEPHALEXIN ANHYDROUS]", "values": [{"measurement": "MIC", "setting": "Haemophilus influenzae [5]", "value": 8, "unit": "µg/mL"}, {"measurement": "MIC", "setting": "[6]", "value": 32, "unit": "µg/mL"}, {"measurement": "MIC", "setting": "Streptococcus pneumoniae", "value": 2, "unit": "µg/mL"}, {"measurement": "MIC", "setting": "Haemophilus influenzae [2]", "value": 8, "unit": "µg/mL"}, {"measurement": "MIC", "setting": "Streptococcus pyogenes", "value": 0.5, "unit": "µg/mL"}, {"measurement": "MIC", "setting": "Staphylococcus aureus [4]", "value": 4, "unit": "µg/mL"}]}, {"molecule": "CC1=C(C(=O)O)N2C(=O)C(NC(=O)[C@H](N)c3csc4ccccc34)C2SC1", "note": "(some centres not stated)", "values": [{"measurement": "MIC", "setting": "Staphylococcus aureus [1]", "value": 32, "unit": "µg/mL"}, {"measurement": "MIC", "setting": "Streptococcus", "value": 128, "unit": "µg/mL"}, {"measurement": "MIC", "setting": "Haemophilus influenzae [5]", "value": 2, "unit": "µg/mL"}, {"measurement": "MIC", "setting": "[6]", "value": 4, "unit": "µg/mL"}, {"measurement": "MIC", "setting": "Streptococcus pneumoniae", "value": 0.5, "unit": "µg/mL"}, {"measurement": "MIC", "setting": "Haemophilus influenzae [2]", "value": 1, "unit": "µg/mL"}, {"measurement": "MIC", "setting": "Staphylococcus aureus [3]", "value": 4, "unit": "µg/mL"}, {"measurement": "MIC", "setting": "Streptococcus pyogenes", "value": 0.5, "unit": "µg/mL"}, {"measurement": "MIC", "setting": "Staphylococcus aureus [7]", "value": 4, "unit": "µg/mL"}, {"measurement": "MIC", "setting": "Staphylococcus aureus [4]", "value": 1, "unit": "µg/mL"}]}]}
